Measurements from patent US20260007758A1, “SO[…]-2 RECEPTOR (SST2R) NON-PEPTIDE DRUG CONJUGATES AND USES THEREOF” (Crinetics Pharmaceuticals, Inc., priority 2024, published 2026).
pEC50: −log10 of the molar value. *1 amine or outer side, *2 acyl side, *3 side chain or, on linkers, in order; H or OH if unused. Where a SMILES comes first, the peptide text is derived from it. [ ]: non-standard residue; d: D form. The star is where a group is joined. X3 = Cc1cc(F)cc(-c2cnc(NCCNC(=O)CCOCCOCCOCCOCCC(=O)*)c(-c3nc4ccc(Cl)cc4[nH]3)c2N2CCC(N)CC2)c1; X4 = Cc1cc(F)cc(-c2cnc(NCCNC(=O)CCOCCC(=O)*)c(-c3nc4ccc(Cl)cc4[nH]3)c2N2CCC(N)CC2)c1; X1 = Cc1cc(F)cc(-c2cnc(*)c(-c3nc4ccc(Cl)cc4[nH]3)c2N2CCC(N)CC2)c1; Dolaproine = CO[C@@H]([C@@H]1CCCN1)[C@@H](C)C(=O)O; Dil = CC[C@H](C)[C@H](NC)[C@@H](CC(=O)O)OC; PABC = O=C(OCc1ccc(N[*:1])cc1)[*:2]; X2 = C[C@@H](N*)[C@@H](O)c1ccccc1; Cit = NC(=O)NCCC[C@H](N)C(=O)O; PEG4 = NCCOCCOCCOCCOCCC(=O)O; NMeV = CN[C@H](C(=O)O)C(C)C; PEG1 = NCCOCCC(=O)O; Ahx = NCCCCCC(=O)O; βAla = NCCC(=O)O

Tests used:
Format in all cases: cell-based
[1] = target: T1, human somatostatin receptor subtype 2 (Homo sapiens, UniProt P30874); assay: Functional assay for SSTR2 agonists (HTRF cAMP); details: CHO-K1 cells stably expressing human SST2; NKH477-stimulated cAMP; 20 min at 37 C; read-out: hSST2 cAMP Avg EC50
T1 construct: expressed in transfected cells
T1 sequence (P30874 whole entry): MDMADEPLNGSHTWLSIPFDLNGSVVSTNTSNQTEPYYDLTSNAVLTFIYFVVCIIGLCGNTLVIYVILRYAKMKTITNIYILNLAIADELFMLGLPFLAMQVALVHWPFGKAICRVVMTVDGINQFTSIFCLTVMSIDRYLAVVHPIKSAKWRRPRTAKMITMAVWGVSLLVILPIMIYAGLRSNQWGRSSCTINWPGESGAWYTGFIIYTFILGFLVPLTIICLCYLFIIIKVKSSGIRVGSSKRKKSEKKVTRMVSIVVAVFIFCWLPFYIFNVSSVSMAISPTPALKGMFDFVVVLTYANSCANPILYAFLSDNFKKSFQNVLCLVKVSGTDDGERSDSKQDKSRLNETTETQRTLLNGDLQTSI
Summary of the method: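 CHO-K1 cells stably expressing human SSTR2 treated with compound (typically 0-10,000 nM final) for 20 min at 37 °C. Lysate cAMP measured by HTRF (665/620 nm ratio), converted via standard curve; EC50 from cAMP vs concentration.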

SST2 = target: T2, SST2 (Homo sapiens, UniProt P30874); assay: PathHunter CHO-K1 SST2 Internalization Assay; details: PathHunter CHO-K1 SST2 cells; 90 min at 37 C; luminescence; read-out: Internalization EC50
T2 construct: host or cells: PathHunter CHO-K1 SST2 cells
T2 sequence (P30874 whole entry): as above
Summary of the method: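 CHO-K1 cells expressing human SST2, 2500 cells/well, grown 48 h, then exposed 90 min at 37 C to 11-point 1:3 NDC dilutions (final top 10 uM). Beta-Glo luminescence after 60 min at room temperature; four-parameter IC50, duplicate mean, background-corrected.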

[2] = test system: NCI-H524 human small cell lung cancer cells; assay: H524 assay: inhibition of cell proliferation (CellTiter Glo); details: 2 h treatment, washout, additional 70 h incubation
Summary of the method: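 NCI-H524 cells were exposed for 2 h to NDC in an 11-point two-fold series starting at 1 uM. The drug was then washed out and cells grew a further 70 h. CellTiter Glo luminescence gave % inhibition versus untreated control, and IC50 came from a four-parameter nonlinear regression.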

| Compound | pEC50 [1] | pEC50 (SST2) | pEC50 [2] |
| --- | --- | --- | --- |
| CC[C@H](C)[C@@H]([C@@H](CC(=O)N1CCC[C@H]1[C@H](OC)[C@@H](C)C(=O)N[C@H](C)[C@@H](O)c1ccccc1)OC)N(C)C(=O)[C@@H](NC(=O)[C@H](C(C)C)N(C)C(=O)OCc1ccc(NC(=O)[C@H](CCCNC(N)=O)NC(=O)[C@@H](NC(=O)c2cc(NCCOCCC(=O)NCCNc3ncc(-c4cc(C)cc(F)c4)c(N4CCC(N)CC4)c3-c3nc4ccc(Cl)cc4[nH]3)cc(C(=O)NCCN)c2)C(C)C)cc1)C(C)C [Compound 184] | 10.20 | 8.74 | 6.62 |
| CC[C@H](C)[C@@H]([C@@H](CC(=O)N1CCC[C@H]1[C@H](OC)[C@@H](C)C(=O)N[C@H](C)[C@@H](O)c1ccccc1)OC)N(C)C(=O)[C@@H](NC(=O)[C@H](C(C)C)N(C)C(=O)OCc1ccc(NC(=O)[C@H](CCCNC(N)=O)NC(=O)[C@@H](NC(=O)c2cc(NCCOCCC(=O)NCCNc3ncc(-c4cc(C)cc(F)c4)c(N4CCC(N)CC4)c3-c3nc4ccc(Cl)cc4[nH]3)cc(C(=O)NCC(=O)O)c2)C(C)C)cc1)C(C)C [Compound 185] | 9.72 | 8.59 | 5.96 |
| CC[C@H](C)[C@@H]([C@@H](CC(=O)N1CCC[C@H]1[C@H](OC)[C@@H](C)C(=O)N[C@H](C)[C@@H](O)c1ccccc1)OC)N(C)C(=O)[C@@H](NC(=O)[C@H](C(C)C)N(C)C(=O)OCc1ccc(NC(=O)[C@H](CCCNC(N)=O)NC(=O)[C@@H](NC(=O)c2cc(NCCOCCC(=O)NCCNc3ncc(-c4cc(C)cc(F)c4)c(N4CCC(N)CC4)c3-c3nc4ccc(Cl)cc4[nH]3)cc(C(=O)NCC(N)=O)c2)C(C)C)cc1)C(C)C [Compound 186] | 9.59 | 8.57 | 6.33 |
| CC[C@H](C)[C@@H]([C@@H](CC(=O)N1CCC[C@H]1[C@H](OC)[C@@H](C)C(=O)N[C@H](C)[C@@H](O)c1ccccc1)OC)N(C)C(=O)[C@@H](NC(=O)[C@H](C(C)C)N(C)C(=O)OCc1ccc(NC(=O)[C@H](CCCNC(N)=O)NC(=O)[C@@H](NC(=O)c2cc(NCCOCCC(=O)NCCNc3ncc(-c4cc(C)cc(F)c4)c(N4CCC(N)CC4)c3-c3nc4ccc(Cl)cc4[nH]3)cc(C(=O)NCCS(=O)(=O)O)c2)C(C)C)cc1)C(C)C [Compound 187] | 9.30 | 8.43 | 5.74 |
| CC[C@H](C)[C@@H]([C@@H](CC(=O)N1CCC[C@H]1[C@H](OC)[C@@H](C)C(=O)N[C@H](C)[C@@H](O)c1ccccc1)OC)N(C)C(=O)[C@@H](NC(=O)[C@H](C(C)C)N(C)C(=O)OCc1ccc(NC(=O)[C@H](CCCNC(N)=O)NC(=O)[C@@H](NC(=O)c2cc(NCCOCCC(=O)NCCNc3ncc(-c4cc(C)cc(F)c4)c(N4CCC(N)CC4)c3-c3nc4ccc(Cl)cc4[nH]3)cc(C(=O)NCC(=O)S(N)(=O)=O)c2)C(C)C)cc1)C(C)C [Compound 188] | 9.47 | 8.57 | 6.17 |
| CC[C@H](C)[C@@H]([C@@H](CC(=O)N1CCC[C@H]1[C@H](OC)[C@@H](C)C(=O)N[C@H](C)[C@@H](O)c1ccccc1)OC)N(C)C(=O)[C@@H](NC(=O)[C@H](C(C)C)N(C)C(=O)OCc1ccc(NC(=O)[C@H](CCCNC(N)=O)NC(=O)[C@@H](NC(=O)c2cc(NCCOCCC(=O)NCCNc3ncc(-c4cc(C)cc(F)c4)c(N4CCC(N)CC4)c3-c3nc4ccc(Cl)cc4[nH]3)cc(C(=O)NCCN(CC(=O)O)CC(=O)O)c2)C(C)C)cc1)C(C)C [Compound 189] | 9.40 | 8.12 | 5.66 |
| CC[C@H](C)[C@@H]([C@@H](CC(=O)N1CCC[C@H]1[C@H](OC)[C@@H](C)C(=O)N[C@H](C)[C@@H](O)c1ccccc1)OC)N(C)C(=O)[C@@H](NC(=O)[C@H](C(C)C)N(C)C(=O)OCc1ccc(NC(=O)[C@H](CCCNC(N)=O)NC(=O)[C@@H](NC(=O)CCOCCNC(=O)[C@H](CCC(=O)O)NC(=O)[C@H](CCC(=O)O)NC(=O)CCOCCOCCOCCOCCC(=O)NCCNc2ncc(-c3cc(C)cc(F)c3)c(N3CCC(N)CC3)c2-c2nc3ccc(Cl)cc3[nH]2)C(C)C)cc1)C(C)C [Compound 190] (X3-EE[PEG1]V[Cit][PABC][NMeV]V[Dil][Dolaproine]-X2) | 9.48 | 7.85 | 5.49 |
| CC[C@H](C)[C@@H]([C@@H](CC(=O)N1CCC[C@H]1[C@H](OC)[C@@H](C)C(=O)N[C@H](C)[C@@H](O)c1ccccc1)OC)N(C)C(=O)[C@@H](NC(=O)[C@H](C(C)C)N(C)C(=O)OCc1ccc(NC(=O)[C@H](CCCNC(N)=O)NC(=O)[C@@H](NC(=O)CCOCCNC(=O)[C@H](CCC(=O)O)NC(=O)[C@H](CCC(N)=O)NC(=O)CCOCCC(=O)NCCNc2ncc(-c3cc(C)cc(F)c3)c(N3CCC(N)CC3)c2-c2nc3ccc(Cl)cc3[nH]2)C(C)C)cc1)C(C)C [Compound 191] (X4-QE[PEG1]V[Cit][PABC][NMeV]V[Dil][Dolaproine]-X2) | 8.72 | 7.42 | 5.77 |
| CC[C@H](C)[C@@H]([C@@H](CC(=O)N1CCC[C@H]1[C@H](OC)[C@@H](C)C(=O)N[C@H](C)[C@@H](O)c1ccccc1)OC)N(C)C(=O)[C@@H](NC(=O)[C@H](C(C)C)N(C)C(=O)OCc1ccc(NC(=O)[C@H](CCCNC(N)=O)NC(=O)[C@@H](NC(=O)CCCCCNC(=O)[C@H](CCC(=O)O)NC(=O)[C@H](CCC(N)=O)NC(=O)CCOCCOCCOCCOCCC(=O)NCCNc2ncc(-c3cc(C)cc(F)c3)c(N3CCC(N)CC3)c2-c2nc3ccc(Cl)cc3[nH]2)C(C)C)cc1)C(C)C [Compound 192] (X3-QE[Ahx]V[Cit][PABC][NMeV]V[Dil][Dolaproine]-X2) | 9.43 | 7.92 | 5.89 |
| CC[C@H](C)[C@@H]([C@@H](CC(=O)N1CCC[C@H]1[C@H](OC)[C@@H](C)C(=O)N[C@H](C)[C@@H](O)c1ccccc1)OC)N(C)C(=O)[C@@H](NC(=O)[C@H](C(C)C)N(C)C(=O)OCc1ccc(NC(=O)[C@H](CCCNC(N)=O)NC(=O)[C@@H](NC(=O)CCCCCCCCNc2ncc(-c3cc(C)cc(F)c3)c(N3CCC(N)CC3)c2-c2nc3ccc(Cl)cc3[nH]2)C(C)C)c(O[C@@H]2O[C@H](C(=O)NCC(=O)O)[C@@H](O)[C@H](O)[C@H]2O)c1)C(C)C [Compound 193] | 9.06 | 8.42 | 7.49 |
| CC[C@H](C)[C@@H]([C@@H](CC(=O)N1CCC[C@H]1[C@H](OC)[C@@H](C)C(=O)N[C@H](C)[C@@H](O)c1ccccc1)OC)N(C)C(=O)[C@H](C)NC(=O)[C@H](C(C)C)N(C)C(=O)OCc1ccc(NC(=O)[C@H](C)NC(=O)[C@@H](NC(=O)CCOCCNC(=O)CCNc2ncc(-c3cc(C)cc(F)c3)c(N3CCC(N)CC3)c2-c2nc3ccc(Cl)cc3[nH]2)C(C)C)c(O[C@@H]2O[C@H](C(=O)O)[C@@H](O)[C@H](O)[C@H]2O)c1 [Compound 194] | 9.80 | 8.12 | 7.68 |
| CC[C@H](C)[C@@H]([C@@H](CC(=O)N1CCC[C@H]1[C@H](OC)[C@@H](C)C(=O)N[C@H](C)[C@@H](O)c1ccccc1)OC)N(C)C(=O)[C@@H](NC(=O)[C@H](C(C)C)N(C)C(=O)OCc1ccc(NC(=O)[C@H](CCCNC(N)=O)NC(=O)[C@@H](NC(=O)CCOCCC(=O)NCCCNc2ncc(-c3cc(C)cc(F)c3)c(N3CCC(N)CC3)c2-c2nc3ccc(Cl)cc3[nH]2)C(C)C)c(O[C@@H]2O[C@H](C(=O)O)[C@@H](O)[C@H](O)[C@H]2O)c1)C(C)C [Compound 195] | 9.46 | 8.39 | 8.07 |
| CC[C@H](C)[C@@H]([C@@H](CC(=O)N1CCC[C@H]1[C@H](OC)[C@@H](C)C(=O)N[C@H](C)[C@@H](O)c1ccccc1)OC)N(C)C(=O)[C@@H](NC(=O)[C@H](C(C)C)N(C)C(=O)OCc1ccc(NC(=O)[C@H](CCCNC(N)=O)NC(=O)[C@@H](NC(=O)CCOCCOCCOCCOCCNC(=O)CCNc2ncc(-c3cc(C)cc(F)c3)c(N3CCC(N)CC3)c2-c2nc3ccc(Cl)cc3[nH]2)C(C)C)cc1)C(C)C [Compound 196] ({X1-βAla-PEG4}-V[Cit][PABC][NMeV]V[Dil][Dolaproine]-X2) | 9.54 | 8.07 | 7.55 |
| CC[C@H](C)[C@@H]([C@@H](CC(=O)N1CCC[C@H]1[C@H](OC)[C@@H](C)C(=O)N[C@H](C)[C@@H](O)c1ccccc1)OC)N(C)C(=O)[C@@H](NC(=O)[C@H](C(C)C)N(C)C(=O)OCc1ccc(NC(=O)[C@H](CCCNC(N)=O)NC(=O)[C@@H](NC(=O)CCOCCOCCOCCOCCC(=O)NCCCNc2ncc(-c3cc(C)cc(F)c3)c(N3CCC(N)CC3)c2-c2nc3ccc(Cl)cc3[nH]2)C(C)C)cc1)C(C)C [Compound 197] | 9.57 | 8.19 | 7.92 |
| CC[C@H](C)[C@@H]([C@@H](CC(=O)N1CCCC1[C@H](OC)[C@@H](C)C(=O)N[C@H](C)[C@@H](O)c1ccccc1)OC)N(C)C(=O)[C@@H](NC(=O)[C@H](C(C)C)N(C)C(=O)OCc1ccc(NC(=O)[C@H](CCCNC(N)=O)NC(=O)[C@@H](NC(=O)CCOCCC(=O)N(C)CC(=O)NCCNc2ncc(-c3cc(C)cc(F)c3)c(N3CCC(N)CC3)c2-c2nc3ccc(Cl)cc3[nH]2)C(C)C)c(OC)c1)C(C)C (stereo partly drawn) [Compound 198] | 10.09 | 8.46 | 7.49 |
| CC[C@H](C)[C@@H]([C@@H](CC(=O)N1CCC[C@H]1[C@H](OC)[C@@H](C)C(=O)N[C@H](C)[C@@H](O)c1ccccc1)OC)N(C)C(=O)[C@@H](NC(=O)[C@H](C(C)C)N(C)C(=O)OCc1ccc(NC(=O)[C@H](CCCNC(N)=O)NC(=O)[C@@H](NC(=O)CCOCCC(=O)N(C)CC(=O)NCCNc2ncc(-c3cc(C)cc(F)c3)c(N3CCC(N)CC3)c2-c2nc3ccc(Cl)cc3[nH]2)C(C)C)c(O)c1)C(C)C [Compound 199] | 10.15 | 8.39 | 8.05 |
